Data set [1] in a line: Saturation solubility studies in various mediums. The class given is physicochemical. As for the experimental part:
Saturation solubility studies were conducted in various mediums for ivacaftor polymorph Form-L2 and Amorphous form and the data is given in Table III.

A short description of data set [2]: Chemical and polymorphic stability study of Ivacaftor Form-L2 on storage (HPLC, XRD). It is filed as physicochemical. How it is done: Ivacaftor Form L2 is packed in a transparent Low density polyethylene (LDPE) bag with a strip seal, which is again kept in a second transparent low density polyethylene bag with strip seal. The LDPE bag is kept in to a triple laminated sunlight barrier with heat seal followed by in a high density polyethylene container and well closed. The ivacaftor was analyzed using High Performance Liquid Chromatography (“HPLC”) with the conditions are tabulated below: [table]

Setting [3] is: stored at 25 ± 2° C./60 ± 5% RH, 1 month.
Setting [4] is: stored at 25 ± 2° C./60 ± 5% RH, 3 month.
The mark [5] stands for this setting: stored at 25 ± 2° C./60 ± 5% RH, Initial.
Where [6] appears, read: stored at 40 ± 2° C./75 ± 5% RH, 1 month.
Setting [7] is: stored at 40 ± 2° C./75 ± 5% RH, 3 month.
Where [8] appears, read: stored at 40 ± 2° C./75 ± 5% RH, Initial.

Read-outs that look alike come from different tables or passages of the source.

As to `CC(C)(C)c1cc(C(C)(C)C)c(NC(=O)c2c[nH]c3ccccc3c2=O)cc1O` [Amorphous form, N-(2,4-di-tert-butyl-5-hydroxyphenyl)-1,4-dihydro-4-oxoquinoline-3-carboxamide, reference compound], the solubility in data set [1] (0.001N HCl + 0.7% SLS, pH 3.12) stood at 230 µg/mL; in data set [1] (0.01N HCl + 0.7% SLS, pH 2.12), 180 µg/mL; in data set [1] (50 mM Phosphate buffer + 0.7% SLS, pH 4.60), 190 µg/mL; in data set [1] (0.1N HCl + 0.7% SLS, pH 1.10), 120 µg/mL; in data set [1] (pH 4.5 AB + 0.7% SLS, pH 4.52), 170 µg/mL; in data set [1] (pH 5.5 PB + 0.7% SLS, pH 5.53), 180 µg/mL. Besides, the solubility in data set [1] (pH 6.8 PB + 0.7% SLS, pH 6.80) was found to be 180 µg/mL.
`CC(C)(C)c1cc(C(C)(C)C)c(NC(=O)c2c[nH]c3ccccc3c2=O)cc1O` [Ivacaftor Form-L2, N-(2,4-di-tert-butyl-5-hydroxyphenyl)-1,4-dihydro-4-oxoquinoline-3-carboxamide]: the solubility in data set [1] (0.001N HCl + 0.7% SLS, pH 3.12, aqueous with cosolvent or surfactant or cyclodextrin, thermodynamic from solid, 0.001N HCl + 0.7% SLS, pH 3.12, read-out: Solubility) is 240 µg/mL; in data set [1] (0.01N HCl + 0.7% SLS, pH 2.12, aqueous with cosolvent or surfactant or cyclodextrin, thermodynamic from solid, 0.01N HCl + 0.7% SLS, pH 2.12, read-out: Solubility), 260 µg/mL; in data set [1] (50 mM Phosphate buffer + 0.7% SLS, pH 4.6, aqueous with cosolvent or surfactant or cyclodextrin, thermodynamic from solid, 50 mM Phosphate buffer + 0.7% SLS, pH 4.60, read-out: Solubility) it was 380 µg/mL; in data set [1] (0.1N HCl + 0.7% SLS, pH 1.1, aqueous with cosolvent or surfactant or cyclodextrin, thermodynamic from solid, 0.1N HCl + 0.7% SLS, pH 1.10, read-out: Solubility) it was 150 µg/mL; in data set [1] (pH 4.5 AB + 0.7% SLS, pH 4.52, aqueous with cosolvent or surfactant or cyclodextrin, thermodynamic from solid, pH 4.5 AB + 0.7% SLS, pH 4.52, read-out: Solubility) it was 310 µg/mL; in data set [1] (pH 5.5 PB + 0.7% SLS, pH 5.53, aqueous with cosolvent or surfactant or cyclodextrin, thermodynamic from solid, pH 5.5 PB + 0.7% SLS, pH 5.53, read-out: Solubility), 260 µg/mL. The solubility in data set [1] (pH 6.8 PB + 0.7% SLS, pH 6.8, aqueous with cosolvent or surfactant or cyclodextrin, thermodynamic from solid, pH 6.8 PB + 0.7% SLS, pH 6.80, read-out: Solubility) came out at 260 µg/mL. In addition, the “Solubility compared to amorphous form” value in data set [1] (various mediums, Table III) was “more solubility when compared to amorphous form”. In addition, the “Polymorphic and chemical identity on storage” value in data set [2] (different storage condition (25° C./60% RH and 40° C./75% RH)) was “retained the same polymorphic and chemical identity at least up to three months”. Besides, the “Any major unknown impurity” value was 0.02 % by HPLC in data set [2] (setting [3]); 0.02 % by HPLC in data set [2] (setting [4]); 0.02 % by HPLC in data set [2] (setting [5]); 0.01 % by HPLC in data set [2] (setting [6]); 0.01 % by HPLC in data set [2] (setting [7]); 0.02 % by HPLC in data set [2] (setting [8]). In addition, the Description entry in data set [2] (setting [3]), in data set [2] (setting [4]), in data set [2] (setting [5]), in data set [2] (setting [6]), in data set [2] (setting [7]) and in data set [2] (setting [8]) was “off-white” in each case. The “Solid form by XRD” value in data set [2] (setting [3]), in data set [2] (setting [4]), in data set [2] (setting [5]), in data set [2] (setting [6]), in data set [2] (setting [7]) and in data set [2] (setting [8]) was “Complies” throughout. Further, the Total impurity in data set [2] (setting [3]) worked out at 0.02 % by HPLC; in data set [2] (setting [4]) it was 0.02 % by HPLC; in data set [2] (setting [5]), 0.03 % by HPLC; in data set [2] (setting [6]), 0.03 % by HPLC; in data set [2] (setting [7]), 0.03 % by HPLC; in data set [2] (setting [8]), 0.03 % by HPLC. In data set [2] (stored at 25 ± 2° C./60 ± 5% RH, Initial, LOD 0.006%), the “Quinolone acid (Imp-3)” value is on record as 0.01 % by HPLC. Further, the “Impurity at RRT 0.59” value in data set [2] (setting [8]) is listed as 0.01 % by HPLC.

Usually solubility stands for how much of the substance goes into solution per volume.
